{"source": "patent US8834841B2", "about": "“Imaging agents” (priority 2005, dated 2014)", "key": {"[1]": {"system": "SKOV3 Ovarian Tumor Cells Implanted SC in SCID Mice", "experiment": "tissue distribution, SKOV3 tumor-bearing SCID mice", "assay_type": "in vivo", "procedure": "For the in vitro amino acid uptake studies, all cells can be grown to monolayer confluency in T-175 culture flasks [Corning, Corning, N.Y.] (approx. 1×10^8 cells/flask) in Dulbecco's Modified Eagle's Medium (DMEM) [Sigma, St. Louis, Mo.] in a humidified incubator (37° C., 5% CO2/95% air). Media are supplemented with 10% fetal calf serum [Hyclone, Logan, Utah], and antibiotics (10,000 U/ml penicillin and 10 mg/ml streptomycin) (Sigma, St. Louis, Mo.). For tissue culture passage, monolayer cells are detached by gentle trypsinization, resuspended in complete media, and split 1:10 into new T-flasks. Cultures are passaged weekly, and fed fresh media every 2 to 3 days. To initiate tumor growth in SCID mice, 1×10^6 cells are injected s.c. bilaterally into the flanks (inguinal region) of the recipient animals using a 1 ml syringe with a 27 gauge needle. Ex vivo experiments can be performed with animals containing tumors weighing between 500 mg and 1 g, as estimated by caliper measurement (tumor weight=(π/6)*abc, where a, b and c are the tumor length, width and height, respectively). The compounds of the invention are further evaluated for their tumor specificity and selectivity in tumor-bearing animal models. One can evaluate and compare the transport, accumulation and tissue distribution of each compound in these in vivo animal studies. Tissue distribution of the compounds is measured in SCID mice (average weight, 20-25 g) bearing human tumors as follows. The candidate radioligands (20 uCi in 0.4 ml 0.9% NaCl) are injected into the tail vein of tumor-bearing mice. […] Tissues (blood, heart, liver, lungs, kidneys, bone, thyroid, muscle, brain and tumor) are excised, rinsed in saline, and blotted dry. The tissues are weighed, placed into 12×75 mm glass vials, the radioactivity determined with a gamma counter, and the percent dose/gram calculated. Total activities of blood and muscle are calculated by assuming that they account for 7% and 40% of the total body mass, respectively."}, "[2]": {"system": "DU145 prostate carcinoma", "experiment": "in vitro amino acid uptake, DU145 cells", "assay_type": "cell-based, human", "source_text": "The inventive compounds have been evaluated in vitro for tumor binding specificity (i.e. uptake cells) using a variety of tumor cell lines available in the art, along with reference compounds such as Me-AIB and BCH. Detailed description of these assays can be found in Martarello et al. (2002) Journal of Medicinal Chemistry, 45:2250-2259 and McConathy et al. (2003) Nuclear Medicine and Biology, 30:477-490. These, so called “amino acid uptake studies” are typically carried out with radiolabeled compounds in at least five phenotypically different human tumor cell lines (e.g. A549 lung carcinoma, MB468 breast carcinoma, DU145 prostate carcinoma, SKOV3 ovarian carcinoma, and U87 glial blastoma). These tumor cell lines can be grown either in vitro or in vivo with severe combined immunodeficiency (SCID) mice as a host. The fore-mentioned tumor cell lines are available at the Winship Cancer Institute of Emory University.\nFor the in vitro amino acid uptake studies, all cells can be grown to monolayer confluency in T-175 culture flasks [Corning, Corning, N.Y.] (approx. 1×10^8 cells/flask) in Dulbecco's Modified Eagle's Medium (DMEM) [Sigma, St. Louis, Mo.] in a humidified incubator (37° C., 5% CO2/95% air). Media are supplemented with 10% fetal calf serum [Hyclone, Logan, Utah], and antibiotics (10,000 U/ml penicillin and 10 mg/ml streptomycin) (Sigma, St. Louis, Mo.). For tissue culture passage, monolayer cells are detached by gentle trypsinization, resuspended in complete media, and split 1:10 into new T-flasks. […]\nIn the in vitro studies the uptake rate of each amino acid compound is measured in each tumor line, as well as the dominant transport mechanisms of each tumor cell line. After trypsinization, cells are resuspended in serum-free media, then counted on a hemocytometer, with viability assessed through Trypan blue staining. […] The vials are placed in a Cobra-II gamma counter (Packard, Meriden, Conn.), with the activity per cell number determined. […] Saline washes are performed as described above, and the filtered cells radioactivity determined on the gamma counter. […]"}}}
{"molecule": "NC1(C(=O)O)CCC1[18F]", "note": "[Anti-R,S 2-[^18F]FACBC, (R,S) anti-1-amino-2-[^18F]fluorocyclobutyl-1-carboxylic acid]", "values": [{"measurement": "% Dose/g blood", "setting": "[1]; 15 Minutes", "value": 3.01, "unit": "% Dose/g"}, {"measurement": "% Dose/g bone", "setting": "[1]; 15 Minutes", "value": 1.40, "unit": "% Dose/g"}, {"measurement": "% Dose/g brain", "setting": "[1]; 15 Minutes", "value": 0.18, "unit": "% Dose/g"}, {"measurement": "% Dose/g heart", "setting": "[1]; 15 Minutes", "value": 2.37, "unit": "% Dose/g"}, {"measurement": "% Dose/g kidney", "setting": "[1]; 15 Minutes", "value": 8.70, "unit": "% Dose/g"}, {"measurement": "% Dose/g liver", "setting": "[1]; 15 Minutes", "value": 2.62, "unit": "% Dose/g"}, {"measurement": "% Dose/g lung", "setting": "[1]; 15 Minutes", "value": 3.96, "unit": "% Dose/g"}, {"measurement": "% Dose/g muscle", "setting": "[1]; 15 Minutes", "value": 1.14, "unit": "% Dose/g"}, {"measurement": "% Dose/g pancreas", "setting": "[1]; 15 Minutes", "value": 34.27, "unit": "% Dose/g"}, {"measurement": "% Dose/g spleen", "setting": "[1]; 15 Minutes", "value": 5.00, "unit": "% Dose/g"}, {"measurement": "% Dose/g tumor", "setting": "[1]; 15 Minutes", "value": 4.89, "unit": "% Dose/g"}, {"measurement": "% Dose/g blood", "setting": "[1]; 30 Minutes", "value": 2.22, "unit": "% Dose/g"}, {"measurement": "% Dose/g bone", "setting": "[1]; 30 Minutes", "value": 1.46, "unit": "% Dose/g"}, {"measurement": "% Dose/g brain", "setting": "[1]; 30 Minutes", "value": 0.21, "unit": "% Dose/g"}, {"measurement": "% Dose/g heart", "setting": "[1]; 30 Minutes", "value": 2.16, "unit": "% Dose/g"}, {"measurement": "% Dose/g kidney", "setting": "[1]; 30 Minutes", "value": 6.12, "unit": "% Dose/g"}, {"measurement": "% Dose/g liver", "setting": "[1]; 30 Minutes", "value": 2.49, "unit": "% Dose/g"}, {"measurement": "% Dose/g lung", "setting": "[1]; 30 Minutes", "value": 2.65, "unit": "% Dose/g"}, {"measurement": "% Dose/g muscle", "setting": "[1]; 30 Minutes", "value": 1.21, "unit": "% Dose/g"}, {"measurement": "% Dose/g pancreas", "setting": "[1]; 30 Minutes", "value": 31.88, "unit": "% Dose/g"}, {"measurement": "% Dose/g spleen", "setting": "[1]; 30 Minutes", "value": 5.22, "unit": "% Dose/g"}, {"measurement": "% Dose/g tumor", "setting": "[1]; 30 Minutes", "value": 5.56, "unit": "% Dose/g"}, {"measurement": "% Dose/g blood", "setting": "[1]; 60 Minutes", "value": 0.94, "unit": "% Dose/g"}, {"measurement": "% Dose/g bone", "setting": "[1]; 60 Minutes", "value": 0.91, "unit": "% Dose/g"}, {"measurement": "% Dose/g brain", "setting": "[1]; 60 Minutes", "value": 0.15, "unit": "% Dose/g"}, {"measurement": "% Dose/g heart", "setting": "[1]; 60 Minutes", "value": 1.40, "unit": "% Dose/g"}, {"measurement": "% Dose/g kidney", "setting": "[1]; 60 Minutes", "value": 2.27, "unit": "% Dose/g"}, {"measurement": "% Dose/g liver", "setting": "[1]; 60 Minutes", "value": 1.28, "unit": "% Dose/g"}, {"measurement": "% Dose/g lung", "setting": "[1]; 60 Minutes", "value": 1.26, "unit": "% Dose/g"}, {"measurement": "% Dose/g muscle", "setting": "[1]; 60 Minutes", "value": 1.03, "unit": "% Dose/g"}, {"measurement": "% Dose/g pancreas", "setting": "[1]; 60 Minutes", "value": 17.57, "unit": "% Dose/g"}, {"measurement": "% Dose/g spleen", "setting": "[1]; 60 Minutes", "value": 2.57, "unit": "% Dose/g"}, {"measurement": "% Dose/g tumor", "setting": "[1]; 60 Minutes", "value": 4.53, "unit": "% Dose/g"}, {"measurement": "% Dose/g blood", "setting": "[1]; 120 Minutes", "value": 0.53, "unit": "% Dose/g"}, {"measurement": "% Dose/g bone", "setting": "[1]; 120 Minutes", "value": 0.94, "unit": "% Dose/g"}, {"measurement": "% Dose/g brain", "setting": "[1]; 120 Minutes", "value": 0.16, "unit": "% Dose/g"}, {"measurement": "% Dose/g heart", "setting": "[1]; 120 Minutes", "value": 1.00, "unit": "% Dose/g"}, {"measurement": "% Dose/g kidney", "setting": "[1]; 120 Minutes", "value": 1.37, "unit": "% Dose/g"}, {"measurement": "% Dose/g liver", "setting": "[1]; 120 Minutes", "value": 0.67, "unit": "% Dose/g"}, {"measurement": "% Dose/g lung", "setting": "[1]; 120 Minutes", "value": 0.68, "unit": "% Dose/g"}, {"measurement": "% Dose/g muscle", "setting": "[1]; 120 Minutes", "value": 0.65, "unit": "% Dose/g"}, {"measurement": "% Dose/g pancreas", "setting": "[1]; 120 Minutes", "value": 10.42, "unit": "% Dose/g"}, {"measurement": "% Dose/g spleen", "setting": "[1]; 120 Minutes", "value": 1.51, "unit": "% Dose/g"}, {"measurement": "% Dose/g tumor", "setting": "[1]; 120 Minutes", "value": 3.39, "unit": "% Dose/g"}, {"measurement": "% Dose Uptake/0.5e6 Cells", "setting": "[2]; DU145, No inhibitor", "value": "6.40 +/− 0.60 % Dose Uptake/0.5e6 Cells"}, {"measurement": "% Dose Uptake/0.5e6 Cells", "setting": "[2]; DU145, inhibitor BCH (10 mM)", "value": "1.78 +/− 0.20 % Dose Uptake/0.5e6 Cells"}, {"measurement": "% Dose Uptake/0.5e6 Cells", "setting": "[2]; DU145, inhibitor MeAlB (10 mM)", "value": "2.07 +/− 0.26 % Dose Uptake/0.5e6 Cells"}]}
